Experimental data: patent US20100099714A1, “AMPA and NMDA Receptor Antagonists for Neurodegenerative Diseases” (Eisai R&D Management Co., Ltd., priority 2007, published 2010)

Experiments:
Cortical cell cultures = experiment: NMDA and kainate-induced toxicity, MTT assay of cell viability; format: cell-based, rat; details: for protection of neuron from excitotoxicity induced by combination treatment with kainate and NMDA: 100 μM NMDA and 100 μM kainate for 24 h, monotherapy, FIG. 1A, B
Protocol: Cortical cell cultures were prepared from fetal rats of the Wistar strain (gestational age of 17 to 19 days, Charles River Japan, Kanagawa, Japan). The cortex was dissected and kept in Neurobasal medium (Invitrogen Corp., Carlsbad, Calif., USA) containing 2% B27 supplement (Invitrogen), 25 μM 2-mercaptoethanol (Wako), 0.5 mM L-glutamine (Invitrogen) and ×1/100 volume of antibiotic-antimycotic (Invitrogen), then incubated at 37° C. for 30 min in Ca^2+/Mg^2+ free Hank's balanced salt solution (MSS; 10 mM HEPES, pH 7.3) containing 0.25% trypsin (Invitrogen) and 0.2 mg/ml deoxyribonuclease (DNase) (Sigma). The cortical tissues were dissociated to single cells by gentle trituration. The cell suspension was centrifuged at 310×g for 3 min and the resulting pellets were resuspended in the medium described above.
The cells were plated at an initial cell density of 5×10^5 cells/cm^2 in poly-L-lysine (Sigma)-coated 96-well plates. The cells were cultured in a CO2 incubator (5% (v/v), at 37° C. in the Neurobasal medium described above for 7 days, and cultured following 4 days in culture medium without antioxidant B27 supplement and 2-mercaptoethanol. The cultures were exposed to 100 μM of N-methyl-D-aspartate (NMDA)(Sigma) and 100 μM of kainate (Sigma) for 24 h at 37° C. The cells were treated with perampanel (0.03, 0.3, 3 or 30 μM) and memantine HCl (0.1, 1, 10 or 100 μM) for 24 h before and during the exposure to these agonists. In the combination experiment, perampanel at […] or memantine at 10 μM or its combination was used.
Viability of cells grown in 96-well plates was measured by 3-[4,5-dimethylthylthiazol-2-yl]-2,5-diphenyltetrazolium bromide (MTT) assay. The 10 μl of 8 mg/ml MTT (Sigma) solution in D-PBS(−) (Dulbecco's phosphate-buffered saline, Sigma) was added to each well. During 10 min incubation at 37° C., the active dehydrogenase in viable mitochondria reduces the tetrazolium ring of MTT, forming a blue-colored precipitate. The cells were lysed and the precipitate was dissolved in […] of MTT solubilizing buffer containing 20% sodium dodecyl sulfate (SDS: Wako) in 50% N,N-dimethyl formamide at pH 4.7, and quantified spectrophotometrically at 550-690 nm.
Wells without cells, containing only the medium and MTT solution, were measured to obtain the background value, which was subtracted from measured values at 550-690 nm, as follows: % of Recovery=(sample−NMDA/Kainate treated control)/(non-treated control−NMDA/Kainate treated control)×100.
The data were analyzed with one-way analysis of variance (ANOVA) followed by Dunnett's multiple comparison test using the software package SAS ver. 8.2 (SAS Institute Japan Ltd., Tokyo, Japan).

[1] = Pharmacokinetic study of memantine, plasma concentration after single dose; format: in vivo, human; details: corresponds to 20-25 ng/ml at 20 mg single dose
Protocol: The efficacy of memantine in a variety of dementias has been shown in clinical trials. Memantine is considered to be a promising neuroprotective drug for the treatment of dementias, particularly Alzheimer's disease (Jain K K, Evaluation of memantine for neuroprotection in dementia. Expert Opin Investig Drugs 2000; 9(6): 1397-406.). Clinical dosage of mamentine is 20 mg/day. Maximal plasma concentration of memantine at 20 mg was at around 20-25 ng/ml after single dose treatment (Periclou A, et al., Pharmacokinetic study of memantine in healthy and renally impaired subjects. Clin Pharmacol Ther 2006; 79: 134-43.). This plasma concentration roughly correspond to 0.1 μM.

[2] = 20 mg, single dose treatment; cited from earlier work
[3] = 40 mg/day compared to 20 mg/day; cited from earlier work
Alzheimer's disease = Alzheimer's disease trials; cited from earlier work
[4] = clinically relevant concentration, roughly 0.1 μM

SMILES | shape of the neuroprotective effect over concentration (Cortical cell cultures; 100 μM NMDA and 100 μM kainate) | protection of neuron from excitotoxicity induced by combination treatment with kainate and NMDA (Cortical cell cultures) | effect size at clinically relevant concentration (Cortical cell cultures; [4]) | neuroprotective effect at clinically relevant concentration (Cortical cell cultures; [4]) | plasma concentration converted to molar [1] | Maximal plasma concentration [2] | risk of adverse event [3] | clinical effect (Alzheimer's disease)
N#Cc1ccccc1-c1cc(-c2ccccn2)cn(-c2ccccc2)c1=O [perampanel, 2-(2-oxo-1-phenyl-5-pyridin-2-yl-1,2-dihydropyridin-3-yl)benzonitrile] | ceiling on the effect from lowest concentration showing neuroprotection | protected neuron from excitotoxicity | – | – | – | – | – | –
C[C@]12CC3C[C@](C)(C1)C[C@@](N)(C3)C2 [memantine, 1-amino-3,5-dimethyl-adamantane] | – | protected neuron from excitotoxicity | small and far below maximal effect | significant neuroprotective effect | ~100 nM | 20 to 25 ng/mL | higher risk of adverse event | modest
